In publication PMC6406258, “The ROMP: A Powerful Approach to Synthesize Novel pH-Sensitive Nanoparticles for Tumor Therapy” (Biomolecules, 2019):
Read-outs that look alike come from different tables or passages of the source.

Test: Hydrolysis of pro-drugs at biologically relevant pHs (half-lives)
Assay type: physicochemical
Text: The behaviors of the eight pro-drugs synthesized were then validated by hydrolysis at various biologically relevant pHs: 4.3, 5.0, 6.0 for the pHs that can be found in acidic vesicles at various maturation degrees, and at pH 7.3 for the physiological and neutral pH. As one can see, the R substituent on the phenyl group is highly important for the modulation of the kinetics of the release. In the case of the two hydroxamic acid pro-drugs, the best system appeared to be the di-p-toluyl one (R=Me), with a half-life of 10–20 h at the moderately acidic pH of lysosomes. Other solutions were too stable or rapidly hydrolyzed. In the case of the benzamide drug, the best system was the diphenyl one (R=H). When a group with an electron donating effect was present on the phenyl rings, the benzamide pro-drugs were decomposed very quickly in a time range that limit the accurateness of the kinetic measurements.
The synthesis of pro-drugs (Scheme 1), the determination of the hydrolysis rates of pro-drugs in mildly acidic pH [25, 26], the pro-drug-functionalized macromonomer-PEO-CI994 (17), the pro-drug-functionalized macro-monomer-PEO-SAHA (16), the pro-drug-functionalized macro-monomer-PEO-NODH (15), and the synthesis of the pro-drug functionalized nanoparticles (NPs) (Figure 1), and the biological tests are developed in the supporting information part.

[1] = buffer, pH 5.0, read-out: Half-life (converted)
[2] = buffer, pH 6.0, read-out: Half-life (converted)
[3] = buffer, pH 4.3, read-out: Half-life (converted)
[4] = buffer, pH 7.3, read-out: Half-life (converted)

SMILES	half-life [1] [min]	half-life [2] [min]	half-life [3] [min]	half-life [4] [min]	half-life (pH 4.3, result in words)	half-life (pH 5.0, result in words)	half-life (pH 7.3, result in words)	half-life (pH 6.0, result in words)
C#CCOCCOCCOCCOCCn1cc(C(Nc2ccccc2NC(=O)c2ccc(NC(C)=O)cc2)(c2ccccc2)c2ccccc2)nn1 [Compound 7a]	400	2880						
C#CCOCCOCCOCCOCCn1cc(C(Nc2ccccc2NC(=O)c2ccc(NC(C)=O)cc2)(c2ccc(OC)cc2)c2ccc(OC)cc2)nn1 [Compound 7c]	< 5	< 5	< 1					
C#CCOCCOCCOCCOCCn1cc(C(Nc2ccccc2NC(=O)c2ccc(NC(C)=O)cc2)(c2ccc(C)cc2)c2ccc(C)cc2)nn1 [Compound 7b]	12	10	< 1					
C#CCOCCOCCOCCOCCn1cc(C(ONC(=O)CCCCCCC(=O)Nc2ccccc2)(c2ccc(OC)cc2)c2ccc(OC)cc2)nn1 [Compound 6c]	80	108	30	34				
C#CCOCCOCCOCCOCCn1cc(C(ONC(=O)/C=C/C(C)=C/C2(C)Oc3cc(N(C)C)ccc3C2=O)(c2ccccc2)c2ccccc2)nn1 (stereo not shown) [Compound 8a]					stable	stable	Stable	
C#CCOCCOCCOCCOCCn1cc(C(ONC(=O)CCCCCCC(=O)Nc2ccccc2)(c2ccccc2)c2ccccc2)nn1 [Compound 6a]					Stable	Stable	Stable	Stable
C#CCOCCOCCOCCOCCn1cc(C(ONC(=O)CCCCCCC(=O)Nc2ccccc2)(c2ccc(C)cc2)c2ccc(C)cc2)nn1 [Compound 6b]		4800	1200	5760				
